Article PMC10099595, “Multimodal 4-arylchromene derivatives with microtubule-destabilizing, anti-angiogenic, and MYB-inhibitory activities” (Cancer Drug Resistance, 2023)
Where two headings read alike, the source gives them in different places.

Experiments:
[1] = system: KB-V1^Vbl cervix carcinoma cells; details: without verapamil; ref Köhler et al.[13]; cited from earlier work
U-87 glioblastoma cells [2] = details: ref Köhler et al.[13]; read-out: IC50 U87; cited from earlier work
[3] = system: HCT-116 colon carcinoma cells; details: ref Köhler et al.[13]; cited from earlier work
518A2 melanoma cells [4] = details: ref Köhler et al.[13]; cited from earlier work
[5] = system: HT-29 colon carcinoma cells; details: ref Köhler et al.[13]; cited from earlier work
[6] = system: MCF-7 breast carcinoma cells; details: ref Köhler et al.[13]; cited from earlier work
[7] = system: EA.hy926 endothelial hybrid cells; details: ref Köhler et al.[13]; cited from earlier work
[8] = system: HCT-116 p53-/- colon carcinoma cells; details: ref Köhler et al.[13]; cited from earlier work
[9] = system: tested cancer and hybrid cell lines; experiment: MTT assay, average over all tested cancer and hybrid cell lines; details: for IC50: Homo sapiens; for SI (IC50 HDFa cells/IC50 tumor cell average): selectivity index, HDFa vs tumor cell average
Procedure: An 3-(4, 5-dimethylthiazol-2-yl)-2, 5-diphenyl tetrazolium bromid (MTT) assay was used for antiproliferative studies. Cancer cells (5 × 10^4 cells/mL, 100 μL/well) were placed in 96-well plates (10 × 10^4 cells/mL for HDFA and U87 cells), and the cells were incubated for 24 h at 5% CO2 and 95% humidity. Then, cells were treated with test compounds (at various concentrations) or solely with DMSO as a negative control for 72 h. Then, 12.5 μL of a 0.5% MTT solution in phosphate-buffered saline (PBS) was added to the cells, followed by incubation for 2 h at 37 °C. After centrifugation of the plates (300 × g, 5 min, 4 °C), the medium was discarded, and 25 μL of DMSO containing 10% SDS and 0.6% acetic acid was added, followed by incubation at 37 °C for at least 1 h. Formazan absorbance at λ = 570 nm was measured using a Tecan infinite F200 microplate reader and corrected for the background (λ = 630 nm). The 50% inhibitory concentration (IC50) values were calculated from dose-response curves (means ± SD, four independent experiments) compared to DMSO-treated control cells, which were set to 100%. GraphPad Prism 9 was used for curve-fitting.
The selectivity index (SI) was calculated as a measure of selectivity toward cancer cells compared to non-malignant cells.

[10] = system: HeLa cervix carcinoma cells; experiment: MTT antiproliferative assay, HeLa; type: cell-based; details: Homo sapiens, 72 h
Source text: (§1) The following cell lines were used: 518A2 melanoma (Department of Radiotherapy, Medical University of Vienna, Austria)[15], HeLa cervix carcinoma, KBV1^Vbl (ACC-149 cervix carcinoma, MCF7 [ACC-115]) breast carcinoma, U-87 glioblastoma, HT-29 (ACC-299), HCT-116 (ACC-581) and HCT-116p53-/- colon carcinoma, EA.hy926 (ATCC® CRL-2922^TM) endothelial hybrid cells, and HDFa (ATCC® PCS-201-012^TM) adult human dermal fibroblasts. […] Only mycoplasma-free cultures were used.

[11] = system: HDFa adult human dermal fibroblasts; experiment: MTT cytotoxicity assay, non-malignant HDFa; type: cell-based; details: 72 h, non-malignant cells
Source text: as §1

[12] = system: KB-V1^Vbl cervix carcinoma cells; experiment: MTT antiproliferative assay, KB-V1Vbl (with or without verapamil); type: cell-based, human; details: for IC50: Homo sapiens, KB-V1/Vbl, 72 h, read-out: IC50 KB-V1^Vbl
Source text: as §1

zebrafish larvae = experiment: Zebrafish angiogenesis assay (SIV area); type: in vivo; details: 48 h treatment; for effect on SIV growth (angiogenesis): zebrafish larvae 24 hpf, 50-1000 nM
Procedure: Transgenic zebrafish (Tg(fli1:EGFP, casper mutant) were bred at 28 °C.[16] After fertilization, the eggs were transferred to E3-medium (5 mm NaCl, 0.17 mm KCl, 0.33 mm CaCl, 0.33 mm MgSO4, 0.01% methylene blue, pH 7.2), followed by incubation for 24 h. The chorion was manually removed, and the larvae were treated with test compounds or solvent in six-well plates (30 fish per concentration, 5 mL/well) for 48 h. The fluorescent vasculature was documented with a Leica MZ10F and Zeiss AxioCam MRrc. To quantify the angiogenesis, the sub-intestinal vein (SIV) area was measured using ImageJ and expressed as means ± SD with the control set to 100%. The significance of SIV reduction through substance treatment was assessed using one-way analysis of variance (ANOVA), *P < 0.05; **P < 0.01; ***P < 0.001; ****P < 0.0001, with Dunnett´s multiple comparison test (GraphPad Prism 9).

[13] = system: HT-29 colon carcinoma cells; experiment: MTT antiproliferative assay, HT-29; type: cell-based; details: Homo sapiens, 72 h
Source text: as §1

U-87 glioblastoma cells [14] = experiment: MTT antiproliferative assay, U87; type: cell-based; details: Homo sapiens, 72 h
Source text: as §1

[15] = system: MCF-7 breast carcinoma cells; experiment: MTT antiproliferative assay, MCF-7; type: cell-based; details: Homo sapiens, MCF7, 72 h
Source text: as §1

[16] = system: HCT-116 colon carcinoma cells; experiment: MTT antiproliferative assay, HCT-116; type: cell-based; details: Homo sapiens, 72 h
Source text: as §1

518A2 melanoma cells [17] = experiment: MTT antiproliferative assay, 518A2; type: cell-based; details: Homo sapiens, 72 h
Source text: as §1

MYB = target: T1, MYB (Homo sapiens, UniProt P10242, K503R/K527R); experiment: Luciferase-dependent MYB activity assay (HEK-MYB-Luc reporter cells); type: cell-based; details: HEK-293 reporter cells, 16 h; read-out: IC50 inhibition of MYB activity
T1 construct: expressed in transfected cells; host or cells: HEK-293 (HEK-MYB-Luc reporter cell line)
Procedure: Compounds were tested using the HEK-MYB-Luc reporter cell line, which allows a doxycycline-dependent induction of MYB expression and harbors an MYB-dependent luciferase reporter plasmid, as previously described. After 16 h of substance treatment (0.0001-3 µM), luciferase activities were analyzed as described.

[18] = system: EA.hy926 endothelial hybrid cells; experiment: MTT antiproliferative assay, EA.hy926; type: cell-based; details: Homo sapiens, EA.hy 926, 72 h
Source text: as §1

[19] = system: HCT-116 p53-/- colon carcinoma cells; experiment: MTT antiproliferative assay, HCT-116 p53-/-; type: cell-based; details: Homo sapiens, 72 h
Source text: as §1

518A2 melanoma cells [20] = experiment: Cell-cycle analysis (FACS, propidium iodide); type: cell-based, human; details: 518A2 cells, 25 nM, 24 h
Procedure: 518A2 melanoma cells (10 × 10^4 cells/mL, 3 mL/well) were cultivated in six-well plates for 24 h. After the treatment with test compounds (10 and 25 nm), C-A4 (10 and 25 nm), or DMSO (vehicle) for an additional 24 h, the cells were trypsinized, centrifuged (300 × g, 5 min, 4 °C), and fixed in 70% EtOH for min. 24 h. For FACS measurement, cells were washed in PBS and stained with propidium iodide solution (50 µg/mL PI, 50 µg/mL RNase A in 0.1% sodium citrate) for 30 min at 37 °C. The DNA content of at least 10000 single cells was determined using a Beckmann Coulter Cytomics FC500 flow cytometer (λex = 488 nm, λem = 570 nm). CXP software (Beckman Coulter) was used to analyze the cells in the cell cycle phases (sub-G1, G1, S, G2/M).

[21] = system: microtubule cytoskeleton of 518A2 melanoma cells; experiment: Microtubule immunofluorescence staining; type: cell-based, human; details: 518A2 cells, 100 nM
Procedure: The cells were treated with test compounds and controls (25 and 100 nm) for 0.5, 1, 3, and 6 h and washed with cytoskeletal buffer (100 nm PIPES, 3 nm MgCl2, 138 nm KCl, 2 nm EGTA, 300 nm sucrose, pH 6.8). Fixation and permeabilization were performed for 5 min with 3.7% formaldehyde and 0.2% Triton X-100 in a cytoskeletal buffer. The cells were fixed with cold EtOH for 10 s, rehydrated in PBS, and blocked with 1% bovine serum albumin in PBS for 30 min. The microtubules were stained for 1 h with primary (anti-α-tubulin, mouse monoclonal antibody) and secondary antibodies (goat anti-mouse IgG-AF-546, Invitrogen) and washed with PBS between each treatment. Nuclei were stained using DAPI (1 µg/mL in PBS) for 30 min. The coverslips were placed in Roti®-Mount FluorCare. Microtubules (λex = 488 nm, λem = 507 nm) and nuclei (λex = 358 nm, λem = 461 nm) were documented by confocal microscopy (Leica TCS SP5 confocal microscope, 630 × magnification) and edited with ImageJ.

[22] = read-out: Average IC50 value of the tested cancer and hybrid cell lines (Ø IC50), average of all cell lines of Table 2
[23] = read-out: Average IC50 value of the tested cancer and hybrid cell lines (Ø IC50)

T1 sequence (P10242 whole entry K503R/K527R): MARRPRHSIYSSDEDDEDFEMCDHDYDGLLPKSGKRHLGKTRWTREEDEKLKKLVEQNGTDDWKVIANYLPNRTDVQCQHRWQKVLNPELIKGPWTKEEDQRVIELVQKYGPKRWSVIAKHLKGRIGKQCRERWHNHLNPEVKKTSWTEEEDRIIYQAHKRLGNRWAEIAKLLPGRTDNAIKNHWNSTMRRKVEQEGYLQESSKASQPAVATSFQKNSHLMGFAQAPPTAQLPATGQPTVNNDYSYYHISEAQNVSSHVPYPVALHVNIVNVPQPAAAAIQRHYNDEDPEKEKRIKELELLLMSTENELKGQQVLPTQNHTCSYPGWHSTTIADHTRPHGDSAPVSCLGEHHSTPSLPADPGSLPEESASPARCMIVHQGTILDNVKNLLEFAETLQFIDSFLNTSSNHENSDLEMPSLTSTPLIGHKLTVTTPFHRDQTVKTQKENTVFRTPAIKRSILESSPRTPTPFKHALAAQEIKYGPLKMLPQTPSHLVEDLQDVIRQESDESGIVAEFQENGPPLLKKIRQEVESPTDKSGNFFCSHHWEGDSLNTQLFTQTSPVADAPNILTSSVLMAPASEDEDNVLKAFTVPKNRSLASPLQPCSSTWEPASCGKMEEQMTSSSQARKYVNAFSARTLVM

SMILES | IC50 [9, 22] [µM] | IC50 [10] [µM] | IC50 [11] [µM] | IC50 ([12]; MTT, without verapamil) [µM] | IC50 [13] [µM] | IC50 (U-87 glioblastoma cells [14]) [µM] | IC50 [15] [µM] | IC50 [16] [µM] | melting point [°C] | IC50 (518A2 melanoma cells [17]) [µM] | IC50 [18] [µM] | IC50 [19] [µM] | G2/M cell-cycle arrest (in words) (518A2 melanoma cells [20]) | other results
COc1c(I)cc(C2C(C#N)=C(N)Oc3c2c(=O)oc2ccccc32)cc1I (stereo not shown) [1C] | > 0.5 |  |  |  |  |  |  |  |  |  |  |  |  | IC50 [1]: 3.7 ± 0.06 µM; IC50 (U-87 glioblastoma cells [2]): 5.5 ± 0.3 µM; IC50 [3]: 3.1 ± 0.1 µM; IC50 (518A2 melanoma cells [4]): 1.5 ± 0.1 µM; IC50 [5]: 2.5 ± 0.2 µM; IC50 [6]: 3.4 ± 0.2 µM; IC50 [7]: 2.8 ± 0.07 µM; IC50 [8]: 2.9 ± 0.06 µM
COc1ccc2c(c1)OC(N)=C(C#N)C2c1cc(Cl)c(OC)c(OC)c1 (stereo not shown) [2A, 2-Amino-3-cyano-4-(3’-chloro-4’, 5’-dimethoxyphenyl)-7-methoxy-4H-chromene] | 0.053 | 0.01 ± 0.0004 | 11.5 | 0.006 ± 0.0005 | 0.3 ± 0.02 | 0.02 ± 0.003 | 0.04 ± 0.007 | 0.07 ± 0.005 | 224 to 225 | 0.004 ± 0.0003 | 0.0004 ± 6e-05 | 0.07 ± 0.005 |  | effect on SIV growth (angiogenesis) (zebrafish larvae): inhibited angiogenesis to an extent comparable to the known inhibitor axitinib; IC50 (MYB): 0.00281 ± 0.0003 µM; SI (IC50 HDFa cells/IC50 tumor cell average) [9]: 219
COc1ccc2c(c1)OC(N)=C(C#N)C2c1cc(I)c(OC)c(I)c1 (stereo not shown) [2F, 2-Amino-3-cyano-4-(3,5-diiodo-4-methoxyphenyl)-7-methoxy-4H-chromene] | 0.043 | 0.03 ± 0.003 | > 50 | 0.07 ± 0.007 | 0.06 ± 0.001 | 0.05 ± 0.01 | 0.08 ± 0.004 | 0.03 ± 0.005 |  | 0.02 ± 0.0004 | 0.02 ± 0.002 |  |  | effect on SIV growth (angiogenesis) (zebrafish larvae): no significant change in blood vessel growth; concentration above which toxic effect occurs (zebrafish larvae; zebrafish larvae): above 250 nM; cells arrested before or during mitosis (G2/M) (518A2 melanoma cells [20]): about 74%; time to change/breakdown of the microtubule cytoskeleton [21]: 1 h; IC50 (MYB): 0.00231 ± 0.0004 µM
COc1ccc2c(c1)OC(N)=C(C#N)C2c1ccccc1Cl (stereo not shown) [2H, 2-Amino-3-cyano-4-(2’-chlorophenyl)-7-methoxy-4H-chromene] | > 0.5 | 1.4 ± 0.1 |  | 1.9 ± 0.2 | 5.3 ± 0.97 | 7.4 ± 0.2 | 5.1 ± 0.37 | 3.7 ± 0.4 | 184 | 2 ± 0.1 | 3.7 ± 0.3 | 2.8 ± 0.3 |  | 
COc1ccc2c(c1)OC(N)=C(C#N)C2c1cc(Cl)c(OC)c(Cl)c1 (stereo not shown) [2D, 2-Amino-3-cyano-4-(3’, 5’-dichloro-4’-methoxyphenyl)-7-methoxy-4H-chromene] | > 0.5 | 0.7 ± 0.05 |  | 2.1 ± 0.1 | 1.4 ± 0.1 | 3.9 ± 0.4 | 2.4 ± 0.3 | 2.5 ± 0.2 |  | 2.1 ± 0.2 | 1.1 ± 0.07 | 1.9 ± 0.2 | only a slight increase in G2/M phase cells | 
C#CCOc1ccc2c(c1)OC(N)=C(C#N)C2c1cc(Br)c(OC)c(OC)c1 (stereo not shown) [compound 3, 2-Amino-3-cyano-4-(3’-bromo-4’, 5’-dimethoxyphenyl)-7-propargyloxy-4H-chromene] |  | 0.04 ± 0.002 |  |  | 2.1 ± 0.3 | 0.09 ± 0.003 | 0.07 ± 0.004 | 0.3 ± 0.01 | 206 to 207 | 0.06 ± 0.003 | 0.08 ± 0.002 | 0.09 ± 0.007 |  | IC50 [12]: 0.08 ± 0.003 µM; IC50 [9, 23]: 0.321 µM
COc1ccc2c(c1)OC(N)=C(C#N)C2c1cc(Br)c(OC)c(Br)c1 (stereo not shown) [2E, 2-Amino-3-cyano-4-(3’, 5’-dibromo-4’-methoxyphenyl)-7-methoxy-4H-chromene] |  | 0.03 ± 0.003 | 22.2 |  | 0.3 ± 0.002 | 0.02 ± 0.002 | 0.08 ± 0.003 | 0.02 ± 0.002 |  | 0.02 ± 0.002 | 0.02 ± 0.001 | 0.04 ± 0.003 | only a slight increase in G2/M phase cells | IC50 [12]: 3.2 ± 0.3 µM; fold lower IC50 values combined with verapamil ([12]; KB-V1^Vbl cells, verapamil 1 µM vs none): 320 fold; IC50 [9, 23]: 0.374 µM; SI (IC50 HDFa cells/IC50 tumor cell average) [9]: 59
COc1ccc(/C=C\c2cc(OC)c(OC)c(OC)c2)cc1O [C-A4, combretastatin A4, reference compound] |  |  |  |  |  |  |  |  |  |  |  |  | significant G2/M cell-cycle arrest | time to change of the microtubule structure [21]: 30 min
